According to patent US11945806B2, “Stabilization of amyloidogenic immunoglobulin light chains” (The Scripps Research Institute, priority 2019, dated 2024):

What follows are compounds tested against WIL-FL (Homo sapiens, UniProt P01721) (assay: Unlabeled LC Protease Sensitivity Assay (proteinase K)). Details: small molecule 10 μM, WIL-FL 5 μM, proteinase K 50 nM, 2 hours at 37° C.
Format: biochemical
Method in brief: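 Compound at 10 μM (1% DMSO) is mixed with 5 μM WIL-FL and 50 nM proteinase K in PBS pH 7.4/0.02% Pluronic F-127, 37 °C, 2 h, then quenched with PMSF. Remaining protein measured by SEC-UPLC peak area at 280 nm and expressed as fold protection relative to vehicle and no-protease controls.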

Row | Protection (fold protection of LC from protease) | Compound
1 | B (3 ≤ B < 0.6) | CCN(CC)c1ccc2c(C)c(CCN3C(=O)NC4(CCN(C(=O)c5cnccn5)C4)C3=O)c(=O)oc2c1 (stereo not shown) [Compound 211, 3-(2-(7-(diethylamino)-4-methyl-2-oxo-2H-chromen-3-yl)ethyl)-7-(pyrazine-2-carbonyl)-1,3,7-triazaspiro[4.4]nonane-2,4-dione]
2 | A (A < 0.3)) | CCN(CC)c1ccc2c(C)cc(=O)[nH]c2c1 [Compound 25, 7-(diethylamino)-4-methylquinolin-2(1H)-one]
3 | B (3 ≤ B < 0.6) | CCN(CC)c1ccc2c(C)c(CCNC(=O)NCc3cccc(Cl)n3)c(=O)oc2c1 [Compound 282, 1-((6-chloropyridin-2-yl)methyl)-3-(2-(7-(diethylamino)-4-methyl-2-oxo-2H-chromen-3-yl)ethyl)urea]
4 | A (A < 0.3)) | Cc1c(CN2CCOCC2)c(=O)oc2cc(OC(C)Cc3ccccc3)ccc12 (stereo not shown) [Compound 184, 4-methyl-3-(morpholinomethyl)-7-((1-phenylpropan-2-yl)oxy)-2H-chromen-2-one]
5 | A (A < 0.3)) | CCN(CC)c1ccc2c(C)c(CCOC(=O)N3CCN(c4cnccn4)CC3)c(=O)oc2c1 [Compound 109, 2-(7-(diethylamino)-4-methyl-2-oxo-2H-chromen-3-yl)ethyl 4-(pyrazin-2-yl)piperazine-1-carboxylate]
6 | C (C ≥ 0.6) | CCN(CC)c1ccc2c(C)c(CCOC(=O)NCc3ccc(F)c(C(N)=O)c3)c(=O)oc2c1 [Compound 144, 2-(7-(diethylamino)-4-methyl-2-oxo-2H-chromen-3-yl)ethyl (3-carbamoyl-4-fluorobenzyl)carbamate]
7 | A (A < 0.3)) | O=C(CN1C(=O)CNC1=O)Nc1ccc(C(F)(F)F)cc1 [Compound 151, 2-(2,5-dioxoimidazolidin-1-yl)-N-(4-(trifluoromethyl)phenyl)acetamide]
8 | A (A < 0.3)) | Cc1cc(=O)oc2cc(C(=O)Nc3ccc4ccccc4c3)ccc12 [Compound 227, 4-methyl-N-(naphthalen-2-yl)-2-oxo-2H-chromene-7-carboxamide]
9 | A (A < 0.3)) | CCN(CCc1ccccc1)c1ccc2c(C)cc(=O)oc2c1 [Compound 37, 7-(ethyl(phenethyl)amino)-4-methyl-2H-chromen-2-one]
10 | A (A < 0.3)) | Cc1cc(=O)oc2cc(OC(C)Cc3ccccc3)ccc12 (stereo not shown) [Compound 47, 4-methyl-7-((1-phenylpropan-2-yl)oxy)-2H-chromen-2-one]
11 | A (A < 0.3)) | CCN(CC)c1ccc2c(C)c(CCNC(=O)NCc3ccc(-c4ccccc4)cc3)c(=O)oc2c1 [Compound 283, 1-([1,1′-biphenyl]-4-ylmethyl)-3-(2-(7-(diethylamino)-4-methyl-2-oxo-2H-chromen-3-yl)ethyl)urea]
12 | A (A < 0.3)) | CCN(CC)c1ccc2c(C)c(CCOC(=O)NCc3cccc(CCC(=O)O)c3)c(=O)oc2c1 [Compound 309, 3-(3-((((2-(7-(diethylamino)-4-methyl-2-oxo-2H-chromen-3-yl)ethoxy)carbonyl)amino)methyl)phenyl)propanoic acid]
13 | C (C ≥ 0.6) | CCN(CC)c1ccc2c(C)c(CCNC(=O)NCc3cccc(-c4c[nH]cn4)c3)c(=O)oc2c1 [Compound 291, 1-(3-(1H-imidazol-4-yl)benzyl)-3-(2-(7-(diethylamino)-4-methyl-2-oxo-2H-chromen-3-yl)ethyl)urea]

More lines, now with the values behind:

Row | Compound | Protection (fold protection of LC from protease)
14 | CCN(CC)c1ccc2c(C)c(CCO)c(=O)oc2c1 [Compound 53, 7-(diethylamino)-3-(2-hydroxyethyl)-4-methyl-2H-chromen-2-one] | A (A < 0.3))
15 | Cc1cc(=O)oc2cc(NCCC(F)(F)F)ccc12 [Compound 265, 4-methyl-7-((3,3,3-trifluoropropyl)amino)-2H-chromen-2-one] | A (A < 0.3))
16 | CCN(CC)c1ccc2c(C)c(CC(=O)NCCN(C)C)c(=O)oc2c1 [Compound 58, 2-(7-(diethylamino)-4-methyl-2-oxo-2H-chromen-3-yl)-N-(2-(dimethylamino)ethyl)acetamide] | A (A < 0.3))
17 | CCN(CC)c1ccc2c(C)c(CCOC(=O)NCCc3cccnc3)c(=O)oc2c1 [Compound 83, 2-(7-(diethylamino)-4-methyl-2-oxo-2H-chromen-3-yl)ethyl (2-(pyridin-3-yl)ethyl)carbamate] | A (A < 0.3))
18 | CCN(CC)c1ccc2c(C)c(CCC(=O)NC)c(=O)oc2c1 [Compound 66, 3-(7-(diethylamino)-4-methyl-2-oxo-2H-chromen-3-yl)-N-methylpropanamide] | A (A < 0.3))
19 | CCN(CC)c1ccc2c(C)c(CCOC(=O)NCc3cccc(-c4nc[nH]n4)c3)c(=O)oc2c1 [Compound 165, 2-(7-(diethylamino)-4-methyl-2-oxo-2H-chromen-3-yl)ethyl (3-(1H-1,2,4-triazol-5-yl)benzyl)carbamate] | C (C ≥ 0.6)
20 | CCN(CC)c1ccc2c(C)c(CCOC(=O)NCc3cccc(-c4cccnn4)c3)c(=O)oc2c1 [Compound 166, 2-(7-(diethylamino)-4-methyl-2-oxo-2H-chromen-3-yl)ethyl (3-(pyridazin-3-yl)benzyl)carbamate] | C (C ≥ 0.6)
21 | Cc1cc(=O)oc2cc(C(=O)Nc3cc(Cl)c(O)c(Cl)c3)ccc12 [Compound 229, N-(3,5-dichloro-4-hydroxyphenyl)-4-methyl-2-oxo-2H-chromene-7-carboxamide] | A (A < 0.3))
22 | CCN(CC)c1ccc2c(C)c(CCN3C(=O)NC4(CCN(c5ncc(C(F)(F)F)cn5)CC4)C3=O)c(=O)oc2c1 [Compound 186, 3-(2-(7-(diethylamino)-4-methyl-2-oxo-2H-chromen-3-yl)ethyl)-8-(5-(trifluoromethyl)pyrimidin-2-yl)-1,3,8-triazaspiro[4.5]decane-2,4-dione] | A (A < 0.3))
23 | CCN(CC)c1ccc2c(CCCOC(=O)NCc3cccc(C(N)=O)c3)cc(=O)oc2c1 [Compound 302, 3-(7-(diethylamino)-2-oxo-2H-chromen-4-yl)propyl (3-carbamoylbenzyl)carbamate] | A (A < 0.3))
24 | CCN(CC)c1ccc2c(C)c(CCOC(=O)NCCCN(C)C)c(=O)oc2c1 [Compound 133, 2-(7-(diethylamino)-4-methyl-2-oxo-2H-chromen-3-yl)ethyl (3-(dimethylamino)propyl)carbamate] | B (3 ≤ B < 0.6)
25 | CCN(CC)c1ccc2c(C)c(CCOC(=O)N3CCN(S(=O)(=O)C4CC4)CC3)c(=O)oc2c1 [Compound 107, 2-(7-(diethylamino)-4-methyl-2-oxo-2H-chromen-3-yl)ethyl 4-(cyclopropylsulfonyl)piperazine-1-carboxylate] | A (A < 0.3))
26 | C=CCN(C)c1ccc2c(C)cc(=O)oc2c1 [Compound 252, 7-(allyl(methyl)amino)-4-methyl-2H-chromen-2-one] | A (A < 0.3))
27 | CCN(CC)c1ccc2c(C)c(CCNC(=O)NCCc3cnc[nH]3)c(=O)oc2c1 [Compound 281, 1-(2-(1H-imidazol-5-yl)ethyl)-3-(2-(7-(diethylamino)-4-methyl-2-oxo-2H-chromen-3-yl)ethyl)urea] | B (3 ≤ B < 0.6)
28 | CCN(CC)c1ccc2c(C)c(CCOC(=O)NCc3ccccn3)c(=O)oc2c1 [Compound 85, 2-(7-(diethylamino)-4-methyl-2-oxo-2H-chromen-3-yl)ethyl (pyridin-2-ylmethyl)carbamate] | B (3 ≤ B < 0.6)
29 | CCCNc1ccc2c(C)cc(=O)oc2c1 [Compound 242, 4-methyl-7-(propylamino)-2H-chromen-2-one] | A (A < 0.3))
30 | Cc1cc(=O)oc2cc(C(=O)Nc3ccc4scnc4c3)ccc12 [Compound 239, N-(benzo[d]thiazol-5-yl)-4-methyl-2-oxo-2H-chromene-7-carboxamide] | A (A < 0.3))
31 | CCN(CC)c1ccc2c(C)c(CCN3C(=O)NC4(CCN(C(=O)c5ncccn5)C4)C3=O)c(=O)oc2c1 (stereo not shown) [Compound 205, 3-(2-(7-(diethylamino)-4-methyl-2-oxo-2H-chromen-3-yl)ethyl)-7-(pyrimidine-2-carbonyl)-1,3,7-triazaspiro[4.4]nonane-2,4-dione] | B (3 ≤ B < 0.6)
32 | CCN(CC)c1ccc2c(C)c(CCNC(=O)NCc3cccc4ccccc34)c(=O)oc2c1 [Compound 285, 1-(2-(7-(diethylamino)-4-methyl-2-oxo-2H-chromen-3-yl)ethyl)-3-(naphthalen-1-ylmethyl)urea] | A (A < 0.3))
33 | Cc1cc(=O)oc2cc(C(=O)NCc3ccc(O)cc3)ccc12 [Compound 230, N-(4-hydroxybenzyl)-4-methyl-2-oxo-2H-chromene-7-carboxamide] | A (A < 0.3))
34 | Cc1cc(=O)oc2cc(C(F)(F)F)ccc12 [Compound 169, 4-methyl-7-(trifluoromethyl)-2H-chromen-2-one] | A (A < 0.3))
35 | CCN(CC)c1ccc2c(C)c(CCC(=O)NCCc3ccccc3)c(=O)oc2c1 [Compound 64, 3-(7-(diethylamino)-4-methyl-2-oxo-2H-chromen-3-yl)-N-phenethylpropanamide] | A (A < 0.3))
36 | Cc1cc(=O)oc2cc(NCc3ccccc3)ccc12 [Compound 28, 7-(benzylamino)-4-methyl-2H-chromen-2-one] | A (A < 0.3))
37 | CCN(CC)c1ccc2c(C)c(CC(=O)NCCc3ccccc3)c(=O)oc2c1 [Compound 55, 2-(7-(diethylamino)-4-methyl-2-oxo-2H-chromen-3-yl)-N-phenethylacetamide] | A (A < 0.3))
